Reference: US6359152B2, “18-substituted-19-nor-vitamin D compounds” (Wisconsin Alumni Research Foundation, priority 1997, dated 2002)

Tests used:
[1] = tested on: HL-60 cells; settings: compared to 1,25-(OH)2D3; FIG. 2
Procedure: The differentiation of HL-60 promyelocytic into monocytes was determined as described by Ostrem et al (J. Biol. Chem. 262, 14164-14171, 1987).

[2] = tested on: Intestinal Calcium Transport; test: Intestinal calcium transport (everted sac) in vitamin D-deficient rats after chronic dosing; assay type: in vivo; settings: for Intestinal Calcium Transport (S/M): intraperitoneal, vitamin D-deficient low calcium diet rats, mean ± SEM, 24 h after last dose; for intestinal calcium transport activity (in words): versus control, given for 7 days in a chronic mode
Procedure: (§1) Male weanling rats were obtained from Sprague Dawley Co. (Indianapolis, Ind.) and fed a 0.47% calcium, 0.3% phosphorus vitamin D-deficient diet for 1 week and then given the same diet containing 0.02% calcium, 0.3% phosphorus for 3 weeks. During the last week they were given the indicated dose of compound by intraperitoneal injection in 0.1 ml 95% propylene glycol and 5% ethanol each day for 7 days. The control animals received only the 0.1 ml of 95% propylene glycol, 5% ethanol. Twenty-four hours after the last dose, the rats were sacrificed and intestinal calcium transport was determined by everted sac technique as previously described and serum calcium determined by atomic absorption spectrometry on a model 3110 Perkin Elmer instrument (Norwalk, Conn.). There were 5 rats per group and the values represent mean ±SEM.

[3] = tested on: Serum Calcium (Bone Calcium Mobilization); test: Serum calcium (bone calcium mobilization) in vitamin D-deficient rats after chronic dosing; assay type: in vivo; settings: for Serum Calcium (mg/100 ml): intraperitoneal, vitamin D-deficient low calcium diet rats, mean ± SEM, 24 h after last dose; for bone calcium mobilizing activity (in words): versus control, given for 7 days in a chronic mode
Procedure: as §1

[4] = biological target: T1, porcine intestinal vitamin D receptor (Sus scrofa, UniProt A3RGC1); test: Competitive binding of [3H]-1,25-(OH)2-D3 to the porcine intestinal vitamin D receptor; settings: at low concentrations; FIG. 1
T1 sequence (A3RGC1 1-427): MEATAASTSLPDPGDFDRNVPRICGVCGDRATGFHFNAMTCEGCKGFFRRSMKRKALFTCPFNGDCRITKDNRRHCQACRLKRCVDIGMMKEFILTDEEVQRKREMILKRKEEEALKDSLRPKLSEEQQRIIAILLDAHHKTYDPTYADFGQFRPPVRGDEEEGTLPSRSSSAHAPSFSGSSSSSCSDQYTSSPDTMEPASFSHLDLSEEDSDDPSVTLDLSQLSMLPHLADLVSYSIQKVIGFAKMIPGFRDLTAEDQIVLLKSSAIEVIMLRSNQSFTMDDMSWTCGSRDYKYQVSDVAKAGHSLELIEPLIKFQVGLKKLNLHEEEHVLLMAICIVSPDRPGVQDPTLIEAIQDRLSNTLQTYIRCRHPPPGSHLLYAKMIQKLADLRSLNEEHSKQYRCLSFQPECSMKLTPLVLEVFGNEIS
Procedure: Competitve binding of the analogs to the porcine intestinal receptor was carried out by the method described by Dame et al (Biochemistry 25, 4523-4534, 1986).

SMILES	activity in inducing differentiation of HL-60 cells to the monocyte [1]	Intestinal Calcium Transport (S/M) ([2]; 260 pmol/day for 7 days)	Intestinal Calcium Transport (S/M) ([2]; 500 pmol/day for 7 days)	intestinal calcium transport activity (in words) [2]	Serum Calcium (mg/100 ml) ([3]; 260 pmol/day for 7 days)	Serum Calcium (mg/100 ml) ([3]; 500 pmol/day for 7 days)	bone calcium mobilizing activity (in words) [3]	binding activity compared to 1,25-(OH)2D3 [4]
CC[C@]12CCC/C(=C\C=C3C[C@@H](O)C[C@H](O)C3)[C@@H]1CC[C@@H]2[C@H](C)CCCC(C)(C)O [13-Ethyl-18,19-Dinor-1,25-(OH)2D3, 1α,25-dihydroxy-13-ethyl-18,19-dinor-vitamin D3]	activity similar to 1,25-(OH)2D3	4.30 ± 0.20	4.40 ± 0.27	no significant change versus control	4.39 ± 0.53	3.99 ± 0.33	no significant change versus control	approximately twice
C=CC12CCC/C(=C\C=C3C[C@@H](O)C[C@H](O)C3)[C@@H]1CC[C@@H]2[C@H](C)CCCC(C)(C)O (stereo partly drawn) [13-Vinyl-18,19-Dinor-1,25-(OH)2D3, 1α,25-dihydroxy-13-vinyl-18,19-dinor-vitamin D3]	activity similar to 1,25-(OH)2D3	4.02 ± 0.24	4.25 ± 0.55	no significant change versus control	3.32 ± 0.21	3.52 ± 0.12	no significant change versus control	approximately twice
C[C@H](CCCC(C)(C)O)[C@H]1CC[C@H]2/C(=C/C=C3C[C@@H](O)C[C@H](O)C3)CCC[C@]12C [19-Nor-1,25-(OH)2D3, 1α,25-dihydroxy-19nor-vitamin D3, reference compound]		4.02 ± 0.50			3.83 ± 0.20			
